Values of other authors, collected in PubChem BioAssay AID1259409 (Chemical Carcinogenesis Research Information System (CCRIS), 2018).

Test system: rodent chemically induced tumor inhibition, incidence and multiplicity
Experiment: CCRIS tumor inhibitor studies

COc1ccc2cc1Oc1ccc(cc1)C[C@H]1c3c(cc4c(c3Oc3cc5c(cc3OC)CCN(C)[C@@H]5C2)OCO4)CCN1C
tumour outcome (control, treated, inhibition, significance) (Carcinogen: 7,12-DIMETHYLBENZ[A]ANTHRACENE, 57-97-6, Dose [Inhibitor]: 0, 0.005% IN DIET BEGINNING 1 D POST CARCINOGEN TREATMENT AND CONTINUING FOR DURATION OF STUDY (STUDY DURATION: 18 WK), Route [Inhibitor]: ORAL, Species: MOUSE, Strain/Sex: ICR/FEMALE, Target Tissue: Type of Lesion: SKIN: PAPILLOMA, Dose [Carcinogen]: 50 UG IN 100 µL ACETONE ONCE, Promoter: 12-O-TETRADECANOYLPHORBOL-13-ACETATE, 16561-29-8): 100%, 95%, 5%, not significant | tumour outcome (control, treated, inhibition, significance) (Carcinogen: 7,12-DIMETHYLBENZ[A]ANTHRACENE, 57-97-6, Dose [Inhibitor]: 0, 0.005% IN DIET BEGINNING 1 D POST CARCINOGEN TREATMENT AND CONTINUING FOR DURATION OF STUDY (STUDY DURATION: 25 WK), Route [Inhibitor]: ORAL, Species: MOUSE, Strain/Sex: ICR/FEMALE, Target Tissue: Type of Lesion: SKIN: PAPILLOMA, Dose [Carcinogen]: 50 UG IN 100 µL ACETONE ONCE, Promoter: 12-O-TETRADECANOYLPHORBOL-13-ACETATE, 16561-29-8, MEZEREIN, 34807-41-5, Promoter: 12-O-TETRADECANOYLPHORBOL-13-ACETATE, 16561-29-8, MEZEREIN, 34807-41-5): 75%, 45%, 40%, not calculated | tumour outcome (control, treated, inhibition, significance) (Carcinogen: 7,12-DIMETHYLBENZ[A]ANTHRACENE, 57-97-6, Dose [Inhibitor]: 0, 2 UMOL 2/WK 30 MIN PRIOR TO EACH PROMOTER DOSE BEGINNING 1 WK POST CARCINOGEN DOSE (STUDY DURATION: 18 WK), Route [Inhibitor]: DERMAL, Species: MOUSE, Strain/Sex: ICR/FEMALE, Target Tissue: Type of Lesion: SKIN: PAPILLOMA, Dose [Carcinogen]: 50 UG ONCE, Promoter: 12-O-TETRADECANOYLPHORBOL-13-ACETATE, 16561-29-8): 100%, 27%, 73%, not calculated | tumour outcome (control, treated, inhibition, significance) (Carcinogen: 7,12-DIMETHYLBENZ[A]ANTHRACENE, 57-97-6, Dose [Inhibitor]: 0, 20 UMOL/MOUSE 2/WK FOR 18 WK APPLIED 5 MIN PRIOR TO EACH PROMOTER DOSE (STUDY DURATION: 19 WK), Route [Inhibitor]: DERMAL, Species: MOUSE, Strain/Sex: CD-1/FEMALE, Target Tissue: Type of Lesion: SKIN: PAPILLOMA, Dose [Carcinogen]: 100 UG IN 200 µL ACETONE ONCE, Promoter: 12-O-TETRADECANOYLPHORBOL-13-ACETATE, 16561-29-8): 100%, 30%, 70%, p<0.01

C=C1CC[C@H]2[C@](C)(COC(=O)[C@@H](CC(=O)O)[C@@H](OC[C@H]3C(=C)CC[C@H]4[C@](C)(CO)CCC[C@]34C)C(=O)OC)CCC[C@]2(C)[C@H]1CO[C@@H](C(=O)OC)[C@H](CC(=O)O)C(=O)OC
tumour outcome (control, treated, inhibition, significance) (Carcinogen: 1,2-DIMETHYLHYDRAZINE DIHYDROCHLORIDE, 306-37-6, Dose [Inhibitor]: 0: 0.06% IN DIET FOR DURATION OF STUDY (STUDY DURATION: 25 WK), Route [Inhibitor]: ORAL, Species: MOUSE, Strain/Sex: ICR/FEMALE, Target Tissue: Type of Lesion: COLON: TUMOR, Dose [Carcinogen]: 10 MG/KG BW IN 0.9% SALINE 1/WK FOR 15 WK, Promoter: NONE USED): 10/16 (63%), 5/16 (31%), 51%, not significant | tumour outcome (control, treated, inhibition, significance) (Carcinogen: 7,12-DIMETHYLBENZ[A]ANTHRACENE, 57-97-6, Dose [Inhibitor]: 0, 1 MG 2/WK FOR 20 WK APPLIED 10 MIN PRIOR TO EACH PROMOTER DOSE (STUDY DURATION: 20 WK), Route [Inhibitor]: DERMAL, Species: MOUSE, Strain/Sex: CD-1/FEMALE, Target Tissue: Type of Lesion: SKIN: TUMOR, Dose [Carcinogen]: 100 UG ONCE, Promoter: OKADAIC ACID, 78111-17-8): 73%, 53%, 27%, not calculated | tumour outcome (control, treated, inhibition, significance) (Carcinogen: 7,12-DIMETHYLBENZ[A]ANTHRACENE, 57-97-6, Dose [Inhibitor]: 0, 5 MG 2/WK FOR 20 WK APPLIED 10 MIN PRIOR TO EACH PROMOTER DOSE (STUDY DURATION: 20 WK), Route [Inhibitor]: DERMAL, Species: MOUSE, Strain/Sex: CD-1/FEMALE, Target Tissue: Type of Lesion: SKIN: TUMOR, Dose [Carcinogen]: 100 UG ONCE, Promoter: OKADAIC ACID, 78111-17-8): 73%, 20%, 73%, not calculated | tumour outcome (control, treated, inhibition, significance) (Carcinogen: N-METHYL-N-NITROSOUREA, 684-93-5, Dose [Inhibitor]: 0, 0.2% IN DIET FOR 33 WK BEGINNING POST CARCINOGEN TREATMENT (STUDY DURATION: 35 WK), Route [Inhibitor]: ORAL, Species: RAT, Strain/Sex: F344/FEMALE, Target Tissue: Type of Lesion: COLON: TUMOR, Dose [Carcinogen]: 2 MG 3/WK FOR 2 WK, Promoter: NONE USED): 12/16 (75%), 5/16 (31%), 57%, p<0.05

CCCCCCCCCCCCCCCCCCCCCCCCCCCCOC(=O)/C=C/c1ccc(O)c(OC)c1
tumour outcome (control, treated, inhibition, significance) (Carcinogen: 7,12-DIMETHYLBENZ[A]ANTHRACENE, 57-97-6, Dose [Inhibitor]: 0, 2 UMOL IN ACETONE/DMSO (9:1) 2/WK FOR 20 WK BEGINNING 1 WK POST CARCINOGEN DOSE (STUDY DURATION: 20 WK), Route [Inhibitor]: DERMAL, Species: MOUSE, Strain/Sex: ICR/FEMALE, Target Tissue: Type of Lesion: SKIN: PAPILLOMA, Dose [Carcinogen]: 50 UG ONCE, Promoter: 12-O-TETRADECANOYLPHORBOL-13-ACETATE, 16561-29-8): 100%, 20%, 80%, not calculated

CC(C)(C)c1cc(C(C)(C)C)c(O)c(C(C)(C)C)c1
tumour outcome (control, treated, inhibition, significance) (Carcinogen: BENZO[A]PYRENE, 50-32-8, Dose [Inhibitor]: 0.03 MMOL/G OF DIET DAILY STARTING 7 D BEFORE AND CONTINUING THROUGH 3 D AFTER CARCINOGEN TREATMENT FOLLOWED BY OBSERVAT, Route [Inhibitor]: ORAL, Species: MOUSE, Strain/Sex: ICR/FEMALE, Target Tissue: Type of Lesion: FORESTOMACH: NEOPLASM, Dose [Carcinogen]: 1 MG IN 0.2 ML CORN OIL 2/WK FOR 4 WK, Promoter: NONE USED): 100%, 93%, 7%, not significant

c1cc2c(cc1[C@H]1OC[C@@H]3[C@H]1CO[C@H]3c1ccc3c(c1)OCO3)OCO2
tumour outcome (control, treated, inhibition, significance) (Carcinogen: 4-NITROQUINOLINE-N-OXIDE, 56-57-5, Dose [Inhibitor]: 0, 2.5 MG/100 ML DRINKING WATER (TOTAL WEEKLY DOSE 1.26 MG) FOR 25 WK BEGINNING 5 WK POST CARCINOGEN DOSE (STUDY DURATIO, Route [Inhibitor]: ORAL, Species: MOUSE, Strain/Sex: ICR/FEMALE, Target Tissue: Type of Lesion: LUNG: TUMOR, Dose [Carcinogen]: 0.3 MG ONCE, Promoter: GLYCEROL, 56-81-5): 87%, 47%, 46%, p<0.05 | tumour outcome (control, treated, inhibition, significance) (Carcinogen: 7,12-DIMETHYLBENZ[A]ANTHRACENE, 57-97-6, Dose [Inhibitor]: 0, 85 NMOL IN 0.1 ML ACETONE 2/WK FOR 20 WK APPLIED 1 HR PRIOR TO EACH PROMOTER DOSE (STUDY DURATION: 20 WK), Route [Inhibitor]: DERMAL, Species: MOUSE, Strain/Sex: ICR/FEMALE, Target Tissue: Type of Lesion: SKIN: PAPILLOMA, Dose [Carcinogen]: 100 UG IN 0.1 ML ACETONE ONCE, Promoter: 12-O-TETRADECANOYLPHORBOL-13-ACETATE, 16561-29-8): 100%, 85%, 15%, not calculated
